Data reported in publication PMC5410595, “In Vitro and In Silico Antidiabetic and Antimicrobial Evaluation of Constituents from Kickxia ramosissima (Nanorrhinum ramosissimum)” (Frontiers in Pharmacology, 2017).
“Also recorded” adds a separate entry of the source. Where two headings read alike, the source gives them in different places.

Columns and labels:
Format in all cases: biochemical
15-LOX from soybean = target: T1, 15-LOX from soybean (Glycine max, UniProt P08170); test: 15-lipoxygenase inhibition assay
T1 sequence (P08170 1-839): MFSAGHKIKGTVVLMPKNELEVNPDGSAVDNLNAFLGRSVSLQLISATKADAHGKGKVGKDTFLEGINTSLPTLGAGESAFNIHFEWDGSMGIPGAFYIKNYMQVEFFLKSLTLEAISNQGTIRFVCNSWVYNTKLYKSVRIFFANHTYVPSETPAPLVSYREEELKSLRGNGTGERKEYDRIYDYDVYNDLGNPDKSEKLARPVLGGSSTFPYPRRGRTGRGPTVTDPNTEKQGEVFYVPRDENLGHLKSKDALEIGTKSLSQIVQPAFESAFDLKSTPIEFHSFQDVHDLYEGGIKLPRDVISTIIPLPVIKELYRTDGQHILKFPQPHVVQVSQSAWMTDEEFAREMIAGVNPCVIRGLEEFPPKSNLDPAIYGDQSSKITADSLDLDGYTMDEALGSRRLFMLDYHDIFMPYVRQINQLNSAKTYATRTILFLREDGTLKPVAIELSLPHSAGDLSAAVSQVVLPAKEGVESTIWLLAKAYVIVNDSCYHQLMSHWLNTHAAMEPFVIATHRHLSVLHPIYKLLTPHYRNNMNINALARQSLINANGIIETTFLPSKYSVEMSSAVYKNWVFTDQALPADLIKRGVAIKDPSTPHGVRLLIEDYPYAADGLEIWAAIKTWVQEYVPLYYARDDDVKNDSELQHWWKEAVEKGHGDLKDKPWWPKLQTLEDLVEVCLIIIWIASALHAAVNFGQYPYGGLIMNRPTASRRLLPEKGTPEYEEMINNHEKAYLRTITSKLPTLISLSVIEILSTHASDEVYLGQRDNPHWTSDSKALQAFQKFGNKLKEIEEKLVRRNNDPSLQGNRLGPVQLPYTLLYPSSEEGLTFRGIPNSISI
Method: The soybean LOX assay is used as an indication of anti-inflammatory activity ([Muller, 1994]), and therefore during the present investigation, 15-LOX from soybean was used for peroxidation of linoleic acid, and inhibition was measured as described previously with slight modifications ([Malterud and Rydland, 2000]). Briefly, 12.5 μL (2–0.062 mM) of sample was dissolved in DMSO, and added to 487.5 μL of enzyme solution (200 U/mL). The mixture was incubated at room temperature for 5 min. Absorbance was recorded immediately after the addition of 500 μL of substrate (250 μM linoleic acid in 0.2 M borate buffer, pH 9) every minute up to 5 min at 234 nm.
% inhibition of enzyme activity was calculated as,
%inhibition of enzyme activity=([ΔA1/Δt]−[ΔA2/Δt])/(ΔA1/Δt)×100
where ΔA1/Δt and ΔA2/Δt are the increase rate in absorbance at 234 nm for sample without test substance and with test substance, respectively.

[1] = test system: formation of AGEs (BSA-glucose); test: BSA-glucose antiglycation assay; details: for Protein glycation BSA-Glucose % inhibition: isolated constituents, at the highest test concentration of 3 mM; for IC50: read-out: Protein glycation BSA-Glucose IC50
Method: The BSA-glucose and BSA-MGO antiglycation assays were performed as reported before ([Amin et al., 2016]). The test protocol is attached as Supplementary Material ([Amin et al., 2016]).
28 Antiglycation assay (BSA-Glucose assay)
29 In the BSA-glucose assay the prevention of AGEs formation is investigated by determining the
30 fluorescence of the complex formed after incubation of a sugar (glucose) with protein (BSA) in
31 the presence or absence of test compounds. The antiglycation assay was performed according to
32 the method developed by Matsuura et al. (2002) with minor modifications. […]
37 DMSO. The mixtures were incubated at 60°C for 48 h. After incubation, the reaction mixture
38 was allowed to cool down at room temperature. Then 100 µL reaction mixture was transferred
39 to a new plastic tube (1.5 mL) and the reaction was stopped by adding 10 μL of 100% (w/v)
40 trichloroacetic acid (TCA) and to precipitate proteins. The TCA-added mixture was kept at 4°C
41 for 10 min, followed by centrifugation (14000 rpm, 4 °C, 4 min). The supernatant containing
42 unreacted D-glucose, test sample and interfering substances was discarded, whereas the
44 8.1 mM Na2HPO4, 2.68 mM KCl, 1.47 mM KH2PO4, […]). The change in fluorescence
46 of AGEs was monitored by spectrofluorometry (Tecan™ Infinite M200, Giessen, The
47 Netherlands). In order to eliminate interference by autofluorescence of the test compounds, a
48 parallel incubation of test substance with BSA at 60°C without D-glucose was performed for all
50 final concentration) were used as reference compounds.
51 The AGEs inhibition was calculated as
55 where F is the fluorescence intensity.
56 calculated using Sigma plot® 13.0.

[2] = target: T2, α-glucosidase from Saccharomyces cerevisiae (Saccharomyces cerevisiae, UniProt P53341); test: α-glucosidase inhibition assay; set-up: inhibition: dose or concentration left out as unconfirmed; details: for α-glucosidase % inhibition: at the highest test concentration of 2 mM; for inhibition: read-out: α-glucosidase % inhibition
T2 construct: purchased Sigma-Aldrich
Method: The α-glucosidase assay was carried out according as reported before ([Amin et al., 2016]). The test protocol is attached as Supplementary Material ([Amin et al., 2016]).
81 Inhibition of α-glucosidase.
82 α-Glucosidase inhibitory activity was assayed according to method adopted by Choudhary et al.
83 (2010) with some modifications. Briefly, 50 µL of a solution of α-glucosidase from
84 Saccharomyces cerevisiae (0.2 U/mL in 0.1 M phosphate buffer at pH 6.8, Sigma-Aldrich, St.
85 Louis, MO, USA) was incubated with 20 μL of test compounds or extracts at different
86 concentrations (ranging from 6 mM – 0.372 mM in 25% DMSO for isolated constituents or
87 from 5 mg to 0.039 mg/mL for extracts) at 37 °C for 10 min. Then 50 μl of the substrate,
88 p-nitrophenyl-α-D-glucopyranoside (0.7 mM stock, final concentration 0.29 mM) was added to
89 the reaction mixture and incubated again for 30 min at 37 °C. […]
91 from 834 µg to 6.5 µg/mL for extracts. The reaction was stopped by adding Na2CO3 (100 μl,
92 200 mM stock) solution and the absorbance was measured at 400 nm. Final DMSO
93 concentration remained below 7.5% during the assay.
94 concentration) was used as reference compound.
96 The % inhibition was calculated using the following formula:
98 % Inhibition = 100 – [OD (test sample) / OD (control)] × 100
100 Alpha-glucosidase inhibition was categorized as mild (1-25%), moderate (26-50%), high

[3] = at the highest test concentration

T2 sequence (P53341 whole entry): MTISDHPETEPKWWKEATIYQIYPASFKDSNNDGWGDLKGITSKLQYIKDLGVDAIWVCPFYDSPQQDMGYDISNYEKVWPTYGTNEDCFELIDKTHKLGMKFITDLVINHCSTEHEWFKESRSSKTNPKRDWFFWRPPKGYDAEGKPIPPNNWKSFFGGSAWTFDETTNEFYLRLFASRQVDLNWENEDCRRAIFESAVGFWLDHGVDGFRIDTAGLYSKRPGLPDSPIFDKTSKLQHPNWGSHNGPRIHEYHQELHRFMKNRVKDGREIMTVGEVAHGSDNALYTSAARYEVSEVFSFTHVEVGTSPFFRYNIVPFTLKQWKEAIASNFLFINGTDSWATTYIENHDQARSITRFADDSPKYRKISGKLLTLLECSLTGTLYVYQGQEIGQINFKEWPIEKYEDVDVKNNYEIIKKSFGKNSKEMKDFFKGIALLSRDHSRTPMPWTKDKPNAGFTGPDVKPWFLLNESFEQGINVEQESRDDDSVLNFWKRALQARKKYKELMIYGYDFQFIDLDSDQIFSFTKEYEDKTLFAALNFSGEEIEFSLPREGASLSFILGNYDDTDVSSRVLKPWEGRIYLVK

Row | Structure (SMILES) | 15-LOX assay % inhibition (15-LOX from soybean; [3]) | Protein glycation BSA-Glucose % inhibition [1] | inhibition [2] | IC50 [1] | other results
1 | CO[C@H]1C[C@@]2(O)[C@H](O)[C@@H](O)[C@](C)(OC)[C@H]2[C@@H](OC)O1 [Compound 1, Kickxiasine] | 30% | 26% |  |  | α-glucosidase % inhibition [2]: no activity; α-glucosidase % inhibition ([2]; listed as compound 1): did not present any activity
2 | COC(=O)c1ccc(O)cc1 [Compound 7, 4-Hydroxy benzoic acid methyl ester] | 30% | did not present any inhibition; also recorded: no activity | 47% |  | 
3 | COc1ccc(-c2cc(=O)c3c(O)c(OC)c(O)cc3o2)cc1 [Compound 5, Pectolinarigenin] |  |  |  | 790 µM | 15-LOX assay % inhibition (15-LOX from soybean): 46%; IC50 [2]: 230 µM
4 | COC(=O)C1=COC(OC2OC(CO)C(O)C(O)C2O)C2C1CCC2(C)O (stereo not shown) [Compound 3, Mussaenoside] | 37% | 28% | 9% |  | 
5 | CC1(O)CCC2C(C(=O)O)=COC(OC3OC(CO)C(O)C(O)C3O)C21 (stereo not shown) [Compound 2, Mussaenosidic acid] |  | 35% | 15% |  | IC50 (15-LOX from soybean): 220 µM
6 | COc1ccc(-c2cc(=O)c3c(O)c(OC)c(O[C@@H]4O[C@H](CO[C@@H]5O[C@@H](C)[C@H](O)[C@@H](O)[C@H]5O)[C@@H](O)[C@H](O)[C@H]4O)cc3o2)cc1 [Compound 6, Pectolinarin] |  |  | 48% | 2290 µM | IC50 (15-LOX from soybean; read-out: 15-LOX IC50): 250 µM
